{"source": "patent US9463337B2", "about": "“Multifunctional hair color protector” (GALAXY SURFACTANTS LTD., priority 2013, dated 2016)", "key": {"[1]": {"assay": "Hair color protection (anti-fade) through rinse-off conditioner, Hunter L* a* b*", "conditions": "rinse-off conditioner with MCBDC vs placebo, ten wash/UV cycles, five hours total UV exposure", "quoted_text": "They were dyed using L'Oreal's Burgundy color as per the protocol described by the dye manufacturer.\nHair coloring (hair dyeing) process is performed as recommended by the marketed product. The color and the developer were mixed in ratio of 1:1 and shampooed hair tresses were treated with the same. The color and developer mixture was applied uniformly to the hair tresses and covered with the aluminum foil for twenty minutes. After this the hair tresses were washed with warm water. […] The ‘Placebo’ and ‘Treated’ hair tresses were exposed to UV radiation, total exposure of five hours through total to washing cycles comprising, shampooing, conditioning, rinsing and UV exposure of 30 mins at time using the equipment described in Example 5. The fading of color of the sets of hair tresses, Control, Placebo and Treated was measured on the Hunter instrument, Labscan XE spectrophotometer. The total color loss (ΔE) is assessed by the change in L* a* b* scale using the equation ΔE=[(ΔL)^2+(Δa)^2+(Δb)^2]^1/2."}, "[2]": {"assay": "Combing force on Diastron tensile tester after shampoo application", "conditions": "shampoo containing MCBDC (2%), one application, as compared to placebo shampoo"}, "[3]": {"assay": "Sensory evaluation of shampooed hair", "conditions": "shampoo containing 2.0% MCBDC vs base shampoo, panel of 10", "method": "Sensory Evaluation of shampooed hair: The subjective evaluation was conducted by the panel of 10. The evaluator scored tresses of the scale of 1 to 2."}, "[4]": {"tested_on": "P. aeruginosa, E. coli, S. aureus, Candida albicans and A. niger", "assay": "CTFA challenge test, overall outcome", "type": "cell-based", "conditions": "30% aqueous paste", "text": "It was challenge tested with both Gram negative, Gram positive bacteria and yeast and mold by the standard challenge test protocol recommended by CTFA. The test organisms used were P. aeruginosa, E. coli, S. aureus, Candida albicans and A. niger.\n(§1) Following strains of Gram positive, Gram negative bacteria and yeast and mold were used for the challenge test. Staphylococcus aureus ATCC 653, Escherichia coli ATCC 8739, Pseudomonas aeruginosa ATCC 15442, Candida albicans ATCC 10231, and Aspergillus niger ATCC 16404.\n(§2) The test is conducted in the six sterile containers each containing a fix equal amount of test sample. Each container was inoculated with a 1% of standardized Inoculum of the microorganism.\n(§3) The initial concentration of the viable microorganism in each test preparation is estimated based on the concentration of microorganism in each of the standardized Inoculum as determined by the plate count method.\n(§4) Each container is incubated at 25° C. The aliquot of sample of each container is removed at appropriate intervals of time 0 day, 24 hrs, 48 hrs, and 7 days, 14 days, 21 days and 28 days."}, "[5]": {"assay": "Viscosity boosting in SLES/CAPB shampoo formulation", "type": "physicochemical", "method": "A typical placebo shampoo base was prepared with sodium lauryl ether sulphate (12%), cocoamidopropyl betaine (4%), EDTA disodium salt (0.1%), preservative (1%, phenoxy ethanol containing four parabens) and rest deionized water. […] All ingredients were mixed using a Silverson homogenizer thoroughly till a uniform homogeneous mixture was formed.\nThe base shampoo based on sodium lauryl ether sulphate (2EO) and cocoamidopropyl betaine was prepared as described in Example 4."}, "[6]": {"assay": "Surface tension of water (surface activity)", "type": "physicochemical"}, "[7]": {"assay": "Zeta potential, Malvern Zetasizer Nano", "type": "physicochemical", "conditions": "1% dispersion", "text": "Also the high zeta potential ensures the stability of colloidal dispersions."}, "[8]": {"tested_on": "Pseudomonas aeruginosa ATCC 15442", "assay": "Challenge test on aqueous paste (30%)", "type": "cell-based", "conditions": "30% aqueous paste, 25° C.", "method": "as §1, §2, §3, §4"}, "[9]": {"tested_on": "Staphylococcus aureus ATCC 653", "assay": "Challenge test on aqueous paste (30%)", "type": "cell-based", "conditions": "30% aqueous paste, 25° C.", "method": "as §1, §2, §3, §4"}, "[10]": {"tested_on": "Candida albicans ATCC 10231", "assay": "Challenge test on aqueous paste (30%)", "type": "cell-based", "conditions": "30% aqueous paste, 25° C.", "method": "as §1, §2, §3, §4"}, "[11]": {"tested_on": "Escherichia coli ATCC 8739", "assay": "Challenge test on aqueous paste (30%)", "type": "cell-based", "conditions": "30% aqueous paste, 25° C.", "method": "as §1, §2, §3, §4"}, "[12]": {"tested_on": "Aspergillus niger ATCC 16404", "assay": "Challenge test on aqueous paste (30%)", "type": "cell-based", "conditions": "30% aqueous paste, 25° C.", "method": "as §1, §2, §3, §4"}, "[13]": {"assay": "Hair protection against UV induced damage through rinse-off conditioner (combing force)", "conditions": "rinse-off conditioner with 2% MCBDC vs placebo conditioner", "quoted_text": "Double bleached European hair were shampooed with the placebo shampoo of Example 4 and conditioned according to the following protocol. The details of UV chamber and exposure conditions are given below.\nPlacebo shampoo of Example 4 was applied for 1 minute to European hair and rinsed the tresses with water for one minute 25° C. with controlled finger movements. This was followed by conditioner application for one minute application time, one minute contact time and one and half minute for rinsing off with warm water (40° C.).\nTreated hair tresses were exposed to UV radiation with the help of UV lamp for 48 hours. UV exposed hair tresses were then subjected to combing force evaluation on Diastron tensile tester.\nTwo tresses per treatment were used. The treated tresses were irradiated with UV chamber which is equipped with two tubes emitting UV light in short UV (254 nm) and long UV 315-400 nm) regions. Sankyo Denki G8TS tube with UV output of 2.5 W was used as short UV light source while Sankyo Denki F8T5BLB backlight—blue tube with UV output of 1.4 W was used as long UV light source. Washing and UV exposure was given in the following sequence for 50 h. UV exposed tresses were washed with isopropanol to remove the quaternary followed by combing force measurement on Diastron Tensile Tester (MTT 175)."}, "UV absorption of MCBDC": {"assay": "UV absorption of MCBDC", "type": "physicochemical", "text": "MCDBC is obtained as practically odorless white paste and has solids content of 30% (Example 2). The product as such has absorbance (E 1%, 1 cm) of 130 at λ max of 306 nm in ethanol.\nIts molar extinction coefficient c is 28,000 when measured at same λ max\nThe white pasty mass that is practically odorless had E1% 1 cm of 130 at λ max 306 nm in EtOH."}, "[14]": {"assay": "Substantivity (deposition) on hair tresses", "conditions": "0.5% aqueous solution/dispersion on hair tresses"}}, "data": [{"compound": "p-methoxy cinnamidopropyl behenyl dimethyl ammonium chloride [MCBDC]", "values": [{"measurement": "total color loss (ΔE)", "setting": "[1]", "result": "Lower ΔE"}, {"measurement": "reduction in combing force, dry combing", "setting": "[2]", "result": 19.40, "unit": "%"}, {"measurement": "reduction in combing force, wet combing", "setting": "[2]", "result": 51.08, "unit": "%"}, {"measurement": "sensorial evaluation", "setting": "[3]", "result": "significant enhancement of sensory attributes"}, {"measurement": "preservation outcome of challenge test", "setting": "[4]", "result": "self preserving"}, {"measurement": "change in viscosity of shampoo formulation", "setting": "[5]; MCBDC 0.5% to 2.0% in base (3000 cps, salt 0.7%), Brookfield spindle No 4, 12 rpm, 25° C.", "result": "linear increase in viscosity"}, {"measurement": "viscosity of shampoo", "setting": "[5]; shampoo with 2% MCBDC, placebo shampoo 3000 cps", "result": "18,000 cps"}, {"measurement": "Drop in surface tension of water", "setting": "[6]", "result": 35, "unit": "dynes"}, {"measurement": "surface tension of water", "setting": "[6]; at 1.0%, 30° C., reduced from 72 Mn/m", "result": 35, "unit": "Mn/m"}, {"measurement": "Zeta potential", "setting": "[7]", "result": "+47 mV"}, {"measurement": "TVC Ps. Aeruginosa", "setting": "[8]; 0 hr", "result": "0.43 × 10^5 cfu/gm"}, {"measurement": "TVC Ps. Aeruginosa", "setting": "[8]; 24 hr", "result": "4.16 × 10^4 cfu/gm"}, {"measurement": "TVC Ps. Aeruginosa", "setting": "[8]; 48 hr", "result": "4.16 × 10^4 cfu/gm"}, {"measurement": "TVC Ps. Aeruginosa", "setting": "[8]; 7 days", "result": "<10", "unit": "cfu/gm"}, {"measurement": "TVC Ps. Aeruginosa", "setting": "[8]; 14 days", "result": "<10", "unit": "cfu/gm"}, {"measurement": "TVC Ps. Aeruginosa", "setting": "[8]; 21 days", "result": "<10", "unit": "cfu/gm"}, {"measurement": "TVC Ps. Aeruginosa", "setting": "[8]; 28 days", "result": "<10", "unit": "cfu/gm"}, {"measurement": "TVC S. aureus", "setting": "[9]; 0 hr", "result": "3 × 10^6 cfu/gm"}, {"measurement": "TVC S. aureus", "setting": "[9]; 24 hr", "result": "<10", "unit": "cfu/gm"}, {"measurement": "TVC S. aureus", "setting": "[9]; 48 hr", "result": "<10", "unit": "cfu/gm"}, {"measurement": "TVC S. aureus", "setting": "[9]; 7 days", "result": "<10", "unit": "cfu/gm"}, {"measurement": "TVC S. aureus", "setting": "[9]; 14 days", "result": "<10", "unit": "cfu/gm"}, {"measurement": "TVC S. aureus", "setting": "[9]; 21 days", "result": "<10", "unit": "cfu/gm"}, {"measurement": "TVC S. aureus", "setting": "[9]; 28 days", "result": "<10", "unit": "cfu/gm"}, {"measurement": "TVC C. albicans", "setting": "[10]; 0 hr", "result": "0.6 × 10^3 cfu/gm"}, {"measurement": "TVC C. albicans", "setting": "[10]; 24 hr", "result": "<10", "unit": "cfu/gm"}, {"measurement": "TVC C. albicans", "setting": "[10]; 48 hr", "result": "<10", "unit": "cfu/gm"}, {"measurement": "TVC C. albicans", "setting": "[10]; 7 days", "result": "<10", "unit": "cfu/gm"}, {"measurement": "TVC C. albicans", "setting": "[10]; 14 days", "result": "<10", "unit": "cfu/gm"}, {"measurement": "TVC C. albicans", "setting": "[10]; 21 days", "result": "<10", "unit": "cfu/gm"}, {"measurement": "TVC C. albicans", "setting": "[10]; 28 days", "result": "<10", "unit": "cfu/gm"}, {"measurement": "TVC E. coli", "setting": "[11]; 0 hr", "result": "0.41 × 10^4 cfu/gm"}, {"measurement": "TVC E. coli", "setting": "[11]; 24 hr", "result": "<10", "unit": "cfu/gm"}, {"measurement": "TVC E. coli", "setting": "[11]; 48 hr", "result": "<10", "unit": "cfu/gm"}, {"measurement": "TVC E. coli", "setting": "[11]; 7 days", "result": "<10", "unit": "cfu/gm"}, {"measurement": "TVC E. coli", "setting": "[11]; 14 days", "result": "<10", "unit": "cfu/gm"}, {"measurement": "TVC E. coli", "setting": "[11]; 21 days", "result": "<10", "unit": "cfu/gm"}, {"measurement": "TVC E. coli", "setting": "[11]; 28 days", "result": "<10", "unit": "cfu/gm"}, {"measurement": "TVC Asp. niger", "setting": "[12]; 0 hr", "result": "0.78 × 10^5 cfu/gm"}, {"measurement": "TVC Asp. niger", "setting": "[12]; 24 hr", "result": "1.16 × 10^1 cfu/gm"}, {"measurement": "TVC Asp. niger", "setting": "[12]; 48 hr", "result": "2.03 × 10^2 cfu/gm"}, {"measurement": "TVC Asp. niger", "setting": "[12]; 7 days", "result": "<10", "unit": "cfu/gm"}, {"measurement": "TVC Asp. niger", "setting": "[12]; 14 days", "result": "<10", "unit": "cfu/gm"}, {"measurement": "TVC Asp. niger", "setting": "[12]; 21 days", "result": "<10", "unit": "cfu/gm"}, {"measurement": "TVC Asp. niger", "setting": "[12]; 28 days", "result": "<10", "unit": "cfu/gm"}, {"measurement": "reduction in combing force after UV exposure, dry combing", "setting": "[13]", "result": "about 30%"}, {"measurement": "reduction in combing force after UV exposure, wet combing", "setting": "[13]", "result": "about 30%"}, {"measurement": "molar extinction coefficient", "setting": "UV absorption of MCBDC; at λ max 306 nm", "result": "28,000"}, {"measurement": "absorbance (E 1%, 1 cm)", "setting": "UV absorption of MCBDC; λ max 306 nm in ethanol, product as such, paste with solids content 30%", "result": 130}]}, {"compound": "COc1cc(O)c(C(=O)c2ccccc2)cc1S(=O)(=O)O", "note": "[B-4, Benzophenone-4]", "values": [{"measurement": "amount deposited on hair (substantivity)", "setting": "[14]", "result": "276 μg/g of hair"}]}]}
